Results from ChEMBL document CHEMBL1157426, “Diazen-1-ium-1,2-diolated nitric oxide donor ester prodrugs of 1-(4-methanesulfonylphenyl)-5-aryl-1H-pyrazol-3-carboxylic acids: synthesis, nitric oxide release studies and anti-inflammatory activities” (Bioorg Med Chem, 2008).

What was measured:
[1] = Induction of nitric oxide release at pH 7.4 PBS after 1.5 hrs; type: physicochemical; conditions: buffer, pH 7.4, 1.5 h
Serum = assay: Induction of nitric oxide release in rat serum at pH 7.4 after 1.5 hrs; type: cell-free; conditions: pH 7.4, 1.5 h
Rattus norvegicus = assay: Antiinflammatory activity in po dosed rat assessed as inhibition of carrageenan-induced paw edema after 3 hrs; type: functional; conditions: read-out: ID50 (the source's name)
[2] = target: Prostaglandin G/H synthase 1 (Homo sapiens) (UniProt P23219); conditions: at 100 µM
Description: Inhibition of COX1 at 100 uM

[3] = target: T1, Prostaglandin G/H synthase 2 (Homo sapiens) (UniProt P35354); conditions: at 100 µM
T1 sequence (whole entry): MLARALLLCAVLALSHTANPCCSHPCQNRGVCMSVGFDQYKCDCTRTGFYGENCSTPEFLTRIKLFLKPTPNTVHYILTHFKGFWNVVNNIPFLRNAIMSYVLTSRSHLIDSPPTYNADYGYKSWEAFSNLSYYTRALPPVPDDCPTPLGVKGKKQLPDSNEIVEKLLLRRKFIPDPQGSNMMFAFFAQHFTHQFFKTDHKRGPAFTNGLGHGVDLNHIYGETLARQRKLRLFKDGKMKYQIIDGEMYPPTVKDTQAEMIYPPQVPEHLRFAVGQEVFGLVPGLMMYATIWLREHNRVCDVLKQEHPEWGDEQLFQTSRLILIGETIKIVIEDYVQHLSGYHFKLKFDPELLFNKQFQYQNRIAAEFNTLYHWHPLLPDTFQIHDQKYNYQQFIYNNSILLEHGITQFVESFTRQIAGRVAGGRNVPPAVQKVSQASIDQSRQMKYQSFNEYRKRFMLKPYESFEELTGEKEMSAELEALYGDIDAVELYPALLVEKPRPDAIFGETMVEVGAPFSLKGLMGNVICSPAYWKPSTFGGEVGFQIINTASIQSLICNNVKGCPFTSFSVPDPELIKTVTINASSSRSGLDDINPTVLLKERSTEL
Description: Inhibition of COX2 at 100 uM

Chain of Prostaglandin G/H synthase 1 (Homo sapiens) (P23219 whole entry): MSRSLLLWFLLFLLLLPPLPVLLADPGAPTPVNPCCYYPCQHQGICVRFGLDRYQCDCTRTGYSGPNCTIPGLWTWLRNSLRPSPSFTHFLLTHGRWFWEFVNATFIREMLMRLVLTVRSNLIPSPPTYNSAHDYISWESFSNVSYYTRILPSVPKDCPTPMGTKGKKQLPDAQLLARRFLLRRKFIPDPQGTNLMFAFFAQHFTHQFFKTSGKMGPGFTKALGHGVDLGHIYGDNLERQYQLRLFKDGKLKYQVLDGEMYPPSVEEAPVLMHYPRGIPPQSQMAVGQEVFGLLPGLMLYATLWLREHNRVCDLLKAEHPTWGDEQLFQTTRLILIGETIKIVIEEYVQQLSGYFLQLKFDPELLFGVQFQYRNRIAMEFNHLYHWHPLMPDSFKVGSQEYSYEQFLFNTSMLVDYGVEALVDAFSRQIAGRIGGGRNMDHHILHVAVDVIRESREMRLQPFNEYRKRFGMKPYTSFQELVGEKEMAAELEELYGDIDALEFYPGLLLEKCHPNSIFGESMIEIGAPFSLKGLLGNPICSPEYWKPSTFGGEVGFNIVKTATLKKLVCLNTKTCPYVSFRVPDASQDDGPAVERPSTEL

Structure (SMILES): CC(=O)OCO/N=[N+](\[O-])N(C)CCOC(=O)c1cc(-c2ccc(C)cc2)n(-c2ccc(S(C)(=O)=O)cc2)n1
- Activity [1]: 9.2%
- Activity (Serum): 70.9%

Structure (SMILES): CN(CCO)/[N+]([O-])=N/[O-].[Na+]
- Activity [1]: 84.5%
- Activity (Serum): 85%

Structure (SMILES): CS(=O)(=O)c1ccc(-n2nc(C(=O)O)cc2-c2ccc(F)cc2)cc1
- ED50 (Rattus norvegicus): 104 mg/kg

Structure (SMILES): CC(=O)OCO/N=[N+](\[O-])N(C)CCOC(=O)c1cc(-c2ccccc2)n(-c2ccc(S(C)(=O)=O)cc2)n1
- Activity [1]: 7.7%
- Activity (Serum): 67.5%

Structure (SMILES): CC(=O)OCO/N=[N+](\[O-])N(C)CCOC(=O)c1cc(-c2ccc(F)cc2)n(-c2ccc(S(C)(=O)=O)cc2)n1
- Activity [1]: 9.3%
- Activity (Serum): 73.6%

Structure (SMILES): Cc1ccc(-c2cc(C(=O)O)nn2-c2ccc(S(C)(=O)=O)cc2)cc1
- ED50 (Rattus norvegicus): 85.2 mg/kg

Structure (SMILES): CS(=O)(=O)c1ccc(-n2nc(C(=O)O)cc2-c2ccccc2)cc1
- ED50 (Rattus norvegicus): 104 mg/kg

Structure (SMILES): CCOC(=O)c1cc(-c2ccc(C)cc2)n(-c2ccc(S(N)(=O)=O)cc2)n1
- inhibition [2]: 66%
- inhibition [3]: 43%
